Assay results taken from patent publication US5039528A, “EAA antagonists as anti-emetic drugs” (priority 1989, dated 1991).
Like-named read-outs stand apart in the source and are kept apart here.

Tests used:
[1] = test system: neurons; settings: cited from earlier work
[2] = test system: motion sickness or vertigo; settings: in vivo; cited from earlier work
[3] = test system: NMDA receptors; experiment: Chick retina assay: protection against excitotoxic action of NMDA; type: cell-based
Description: (§1) Antagonist potencies were established in a chick retina assay which has
(§2) (NMDA, KA and Quis) for excitotoxic properties and EAA antagonists for
(§3) potency in protecting the retina against the excitotoxic action of such
(§4) agonists. The concentration of antagonist required to totally prevent the
(§5) toxic action of an agonist was used to compare antagonists for potency.
(§6) For purposes of illustration, the data were normalized by assigning a
(§7) EAA antagonist properties have been described in each category. Antagonis
(§8) potencies were established in a chick retina assay which has been used by
(§9) Quis) for excitotoxic properties and EAA antagonists for potency in
(§10) protecting the retina against the excitotoxic action of such agonists.
(§11) concentration of antagonist required to totally prevent the toxic action
(§12) of an agonist was used to compare antagonists for potency. For purposes o
(§13) to kynurenic acid vs KA (see table 1) and all other values were adjusted

[4] = cited from earlier work; for penetration of blood brain barriers: statement in text; for BBB penetrability: Table 1
[5] = test system: humans; settings: cited from earlier work; for psychotic effects: humans; for serious side effects: interaction with NMDA receptors throughout the brain
[6] = test system: KA receptors; experiment: Chick retina assay: protection against excitotoxic action of KA; type: cell-based
Description: as §1, §2, §3, §4, §5, §6, §7, §8, §9, §10, §11, §12, §13

[7] = test system: Quis receptors; experiment: Chick retina assay: protection against excitotoxic action of Quis; type: cell-based
Description: as §1, §2, §3, §4, §5, §6, §7, §8, §9, §10, §11, §12, §13

[8] = test system: EAA receptors (NMDA, KA, Quis); settings: cited from earlier work
[9] = test system: NMDA receptors; settings: Table 1, *: not screened in chick retina assay; estimated from other reported electrophysiological data; cited from earlier work
[10] = test system: KA receptors; settings: Table 1, *: not screened in chick retina assay; estimated from other reported electrophysiological data; cited from earlier work
[11] = test system: Quis receptors; settings: Table 1, *: not screened in chick retina assay; estimated from other reported electrophysiological data; cited from earlier work
[12] = test system: emesis associated with cancer chemotherapy; settings: cited from earlier work; for side effects: high doses; for anti-emetic effect in cancer chemotherapy: in vivo
[13] = test system: dogs; experiment: Emesis induction by KA in dogs; blockage by Kyn; type: in vivo, dog
Experimental: Kainic acid (KA), an EAA agonist which triggers the KA class of non-NMDA receptors, was administered to dogs at dosages in the vicinity of 0.5 mg/kg SC.

[14] = test system: dogs; experiment: Emesis induction by glutamate in dogs; blockage by D-AP5 or Kyn; type: in vivo, dog
[15] = test system: ferrets; experiment: Emesis induction by cisplatin (8 mg/kg IV) in ferrets; blockage by Kyn; type: in vivo, ferret; settings: cisplatin 8 mg/kg IV, ferrets
Experimental: Four ferrets (a control group) received 8 mg/kg IV cisplatin, a chemotherapeutic drug which has a powerful emetic effect.
Nine ferrets were treated with cisplatin (8 mg/kg IV), and with Kyn, either by bolus (one-shot) injection using 150 mg/kg, or by continuous IV infusion using 50 mg/kg/hour.

[16] = test system: cerebral ischemia; settings: animal experiments, cerebral ischemia (stroke); cited from earlier work
[17] = test system: patients; settings: high blood concentrations, humans; cited from earlier work
[18] = test system: area postrema-CVO neurons; settings: cited from earlier work; for emesis at a toxic dose: dogs and monkeys; for neurotoxic effects: subcutaneous, immature animals of various species including monkeys, CVO brain regions
[19] = test system: 5-HT M receptors; settings: cited from earlier work
[20] = Table 2, normalized to kynurenic acid vs KA = 1
[21] = Table 1, normalized to kynurenic acid vs KA = 1
[22] = Kyn 50 mg/kg/hour continuous IV infusion

OC(CCN1CCCCC1)(c1ccccc1)C1CC2C=CC1C2 (centres unmarked) [biperiden]
reduction of the neurotoxicity of NMDA antagonists that penetrate the BBB ([1]; Ser. No. 424,548): effective in reducing the neurotoxicity

CN1[C@@H]2C[C@@H](OC(=O)[C@H](CO)c3ccccc3)C[C@H]1[C@@H]1O[C@@H]12 [scopolamine]
effect against motion sickness or vertigo [2]: relatively ineffective unless taken before a boat or airplane ride or other motion begins, or before the onset of vertigo | effect on nausea and vomiting caused by other factors [2]: not effective

CCNC1(c2cccs2)CCCCC1=O (racemic) [tilletamine]
EAA antagonist potency vs NMDA [3, 20]: 200 | penetration of blood brain barriers [4]: permeate easily through BBB's | psychotic effects [5]: psychotic effects

O=C(O)c1cc(O)c2ccc(Cl)cc2n1 [7-Cl-kynurenate, 7-chloro-kynurenic acid]
EAA antagonist potency vs NMDA [3, 21]: 10 | EAA antagonist potency vs KA [6, 21]: 4 | EAA antagonist potency vs Quis [7, 21]: 3 | EAA receptor subtype order of blockade [8]: NMDA>KA>Quis | BBB penetrability [4]: very low | penetration of blood brain barriers [4]: do not penetrate blood-brain barriers

O=C(O)C1CN(C/C=C/P(=O)(O)O)CCN1 (centres unmarked) [CPP-ene]
EAA antagonist potency vs NMDA [9]: 200 | EAA antagonist potency vs KA [10]: 0 | EAA antagonist potency vs Quis [11]: 0 | BBB penetrability [4]: moderate | penetration of blood brain barriers [4]: do not readily penetrate blood brain barriers

C=CCC1(C(C)CCC)C(=O)N=C(S)NC1=O (centres unmarked) [thiamylal]
EAA antagonist potency vs NMDA [3, 20]: 13 | EAA antagonist potency vs KA [6, 20]: 3 | EAA antagonist potency vs Quis [7, 20]: 2

O=C(CCCN1CCC(O)(c2ccc(Cl)cc2)CC1)c1ccc(F)cc1 [haloperidol]
side effects [12]: severe side effects such as abnormal motor movements, muscle rigidity, and tremors | anti-emetic effect in cancer chemotherapy [12]: only weakly active as anti-emetics

CC(C(O)c1ccc(O)cc1)N1CCC(Cc2ccccc2)CC1 (centres unmarked) [ifenprodil]
EAA antagonist potency vs NMDA [3, 21]: 100

CCN(CC)C(C)CN1c2ccccc2Sc2ccccc21 (centres unmarked) [ethopropazine]
EAA antagonist potency vs NMDA [3, 20]: 40

CN1[C@@H]2CC[C@H]1C[C@@H](OC(c1ccccc1)c1ccccc1)C2 [benztropine]
reduction of the neurotoxicity of NMDA antagonists that penetrate the BBB ([1]; in vivo): effective in reducing the neurotoxicity

O=C(O)C1CN(CCCP(=O)(O)O)CCN1 (centres unmarked) [CPP]
EAA antagonist potency vs NMDA [9]: 200 | EAA antagonist potency vs KA [10]: 0 | EAA antagonist potency vs Quis [11]: 0

CN1CC[C@@]23CCCC[C@@H]2[C@@H]1Cc1ccc(O)cc13 [dextrorphan]
EAA antagonist potency vs NMDA [3, 20]: 40

N[C@H](CCCP(=O)(O)O)C(=O)O [D-AP5, D-2-amino-5-phosphonopentanoate]
EAA antagonist potency vs NMDA [3, 21]: 40

O=C(O)c1cc(=O)c2ccccc2[nH]1 [kynurenic acid]
EAA antagonist potency vs NMDA [3, 21]: 4 | EAA antagonist potency vs KA [6, 21]: 1 | EAA antagonist potency vs Quis [7, 21]: 1 | blockage of KA-induced emesis ([13]; 50 mg/kg SC): emesis was blocked | blockage of glutamate-induced emesis ([14]; Kyn 75 mg/kg SC): could be blocked | behavior/malaise after cisplatin, treated by continuous infusion [15, 22]: displayed playful behavior, sought and ate food, did not appear ill | vomiting after cisplatin, treated by continuous infusion [15, 22]: did not vomit | appeared as ill as the control animals, treated by bolus injection ([15]; Kyn 150 mg/kg bolus): only one appeared to be as ill as the control animals | vomiting and malaise after cisplatin, treated by bolus injection ([15]; Kyn 150 mg/kg bolus): Three of the ferrets treated by bolus injection vomited once or twice and showed transient malaise | EAA receptor subtype order of blockade [8]: NMDA>KA>Quis

CN(C)CCOC(c1ccccc1)c1ccccc1 [dimenhydrinate]
effect against motion sickness or vertigo [2]: relatively ineffective unless taken before a boat or airplane ride or other motion begins, or before the onset of vertigo | effect on nausea and vomiting caused by other factors [2]: not effective

OC(CN1CCC(Cc2ccc(F)cc2)CC1)c1ccc(Cl)cc1 (centres unmarked) [SL 82,0715]
EAA antagonist potency vs NMDA [3, 21]: 50

c1ccc(C2(N3CCCCC3)CCCCC2)cc1 [PCP, phencyclidine]
EAA antagonist potency vs NMDA [3, 20]: 2000 | neuroprotective effects [16]: powerful neuroprotective effects | penetration of blood brain barriers [4]: readily penetrate BBB | penetration of blood brain barriers ([4]; listed as phencyclidine): permeate easily through BBB's | psychotic effects [5]: psychotic effects | serious side effects [5]: psychotic disturbances and pathomorphological changes in cerebrocortical neurons

CCCC(C)C1(CC)C(=O)NC(=S)NC1=O (centres unmarked) [thiopental]
EAA antagonist potency vs NMDA [3, 20]: 7 | EAA antagonist potency vs KA [6, 20]: 2 | EAA antagonist potency vs Quis [7, 20]: 2

OC(CCN1CCCCC1)(c1ccccc1)C1CCCCC1 (centres unmarked) [trihexyphenidyl]
reduction of the neurotoxicity of NMDA antagonists that penetrate the BBB ([1]; Ser. No. 424,548): effective in reducing the neurotoxicity

C=C(C)[C@H]1CN[C@H](C(=O)O)[C@H]1CC(=O)O [KA, kainic acid]
emetic response to KA ([13]; in the vicinity of 0.5 mg/kg SC, without Kyn): All of the animals suffered an emetic response

N[C@@H](CC(=O)O)C(=O)O [aspartate]
emetic properties [17]: induce vomiting | emesis at a toxic dose [18]: first causes the animal to vomit before continued excitatory stimulation destroys the area postrema-CVO neurons | neurotoxic effects [18]: powerful neurotoxic effects

C/C(=C\C(N)C(=O)O)CP(=O)(O)O (centres unmarked) [CGP 37849]
EAA antagonist potency vs NMDA [9]: 200 | EAA antagonist potency vs KA [10]: 0 | EAA antagonist potency vs Quis [11]: 0 | BBB penetrability [4]: moderate

NC(CCCC(=O)O)C(=O)O (stereo not drawn) [α-amino adipate]
EAA antagonist potency vs NMDA [3, 21]: 5

OC(CCN1CCCC1)(c1ccccc1)C1CCCCC1 (centres unmarked) [procyclidine]
EAA antagonist potency vs NMDA [3, 20]: 67 | reduction of the neurotoxicity of NMDA antagonists that penetrate the BBB ([1]; Ser. No. 424,548): effective in reducing the neurotoxicity

O=C(O)[C@@H]1C[C@H](CP(=O)(O)O)CCN1 [CGS 19755]
EAA antagonist potency vs NMDA [9]: 200 | EAA antagonist potency vs KA [10]: 0 | EAA antagonist potency vs Quis [11]: 0

O=c1[nH]c2cc([N+](=O)[O-])c([N+](=O)[O-])cc2[nH]c1=O [DNQX, 6,7-dinitro-quinoxaline-2,3-dion]
EAA antagonist potency vs NMDA [3, 21]: 10 | EAA antagonist potency vs KA [6, 21]: 20 | EAA antagonist potency vs Quis [7, 21]: 40 | block of non-NMDA vs NMDA receptors [8]: block non-NMDA receptors substantially more powerfully than NMDA receptors | potency compared with kynurenic or 7-chloro-kynurenic acid [8]: significantly more powerful | BBB penetrability [4]: very low | penetration of blood brain barriers [4]: do not penetrate blood-brain barriers

N[C@H](CCCCCP(=O)(O)O)C(=O)O [D-AP7, D-2-amino-7-phosphonoheptanoate]
EAA antagonist potency vs NMDA [3, 21]: 13 | BBB penetrability [4]: very low | penetration of blood brain barriers [4]: do not readily penetrate blood brain barriers

COc1ccc2c(c1)[C@]13CCCC[C@@H]1[C@H](C2)N(C)CC3 [dextromethorphan]
EAA antagonist potency vs NMDA [3, 20]: 20

CNC1(c2ccccc2Cl)CCCCC1=O (centres unmarked) [ketamine]
psychotic effects [5]: psychotic effects

N[C@@H](CCC(=O)O)C(=O)O [Glutamate, glutamate]
emetic response to glutamate ([14]; 150 mg/kg IV): An emetic response was observed in all animals | penetration of blood brain barriers [4]: does not penetrate the BBB | emetic properties [17]: induce vomiting | emesis at a toxic dose [18]: first causes the animal to vomit before continued excitatory stimulation destroys the area postrema-CVO neurons | neurotoxic effects [18]: powerful neurotoxic effects

CN1CCN(CCCN2c3ccccc3Sc3ccc(Cl)cc32)CC1 [compazine]
side effects [12]: severe side effects such as abnormal motor movements, muscle rigidity, and tremors | anti-emetic effect in cancer chemotherapy [12]: only weakly active as anti-emetics

C[C@]12N[C@H](Cc3ccccc31)c1ccccc12 [MK-801]
EAA antagonist potency vs NMDA [3, 20]: 5000 | neuroprotective effects [16]: powerful neuroprotective effects | psychotic effects [5]: psychotic effects | serious side effects [5]: psychotic disturbances and pathomorphological changes in cerebrocortical neurons

CCN(CC)CCNC(=O)c1cc(Cl)c(N)cc1OC [metoclopramide]
5-HT M receptor antagonism [19]: only a weak 5-HT M receptor antagonist | anti-emetic effect in cancer chemotherapy [12]: only partially effective
